Data as given in patent publication US12258354B2, “AhR modulators” (IDEAYA BIOSCIENCES, INC., priority 2018, dated 2025).

Target: T1, hAhR (Homo sapiens, UniProt P35869)
T1 construct: Stably integrated DRE-luciferase cell lines were generated by transducing the both cell lines with Cignal XRE luciferase reporter; endogenous in cells; host or cells: HEPG2 DRE-Luc cells (only the XRE luciferase reporter was transduced)
T1 sequence (P35869 11-848): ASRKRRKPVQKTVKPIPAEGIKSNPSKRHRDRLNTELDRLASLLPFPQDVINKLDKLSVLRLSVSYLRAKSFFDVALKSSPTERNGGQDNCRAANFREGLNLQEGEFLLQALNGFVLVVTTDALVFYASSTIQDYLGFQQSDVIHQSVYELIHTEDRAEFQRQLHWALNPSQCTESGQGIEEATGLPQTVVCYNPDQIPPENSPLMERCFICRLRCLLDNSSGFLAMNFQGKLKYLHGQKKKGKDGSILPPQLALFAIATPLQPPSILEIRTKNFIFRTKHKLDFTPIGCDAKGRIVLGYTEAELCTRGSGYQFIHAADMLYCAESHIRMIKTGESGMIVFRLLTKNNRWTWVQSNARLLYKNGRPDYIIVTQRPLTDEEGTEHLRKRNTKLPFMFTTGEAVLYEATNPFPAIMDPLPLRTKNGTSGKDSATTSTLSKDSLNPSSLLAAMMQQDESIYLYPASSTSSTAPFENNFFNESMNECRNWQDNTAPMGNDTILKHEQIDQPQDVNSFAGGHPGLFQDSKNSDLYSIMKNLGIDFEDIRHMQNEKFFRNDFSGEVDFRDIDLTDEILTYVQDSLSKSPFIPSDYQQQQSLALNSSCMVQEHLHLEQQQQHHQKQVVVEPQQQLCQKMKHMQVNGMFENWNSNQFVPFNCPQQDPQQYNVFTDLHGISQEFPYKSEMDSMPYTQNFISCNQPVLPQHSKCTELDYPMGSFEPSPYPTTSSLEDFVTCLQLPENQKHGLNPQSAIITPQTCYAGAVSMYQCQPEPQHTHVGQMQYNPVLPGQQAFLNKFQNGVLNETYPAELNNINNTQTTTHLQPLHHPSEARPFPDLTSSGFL
Experiment: DRE-luciferase transcriptional reporter assay in HEPG2 DRE-Luc cells, TCDD-induced (antagonist mode)
Assay type: cell-based
Conditions: relative IC50, 3 nM TCDD, 24-hour incubation, firefly luciferase readout
Protocol: HEPG2 and HEPA1C1C7 cells were maintained in MEM and αMEM without nucleosides supplemented with 10% heat inactivated FBS respectively. Stably integrated DRE-luciferase cell lines were generated by transducing the both cell lines with Cignal XRE luciferase reporter (Qiagen) lentiviral particles according to the manufacturer protocol. For both cell lines stably integrated reporter cell lines were selected for the presence of 2 μg/mL puromycin. Following selection of stably integrated cell line pools, clonal cell lines were isolated by limiting dilution in 96-well plates. Transcriptional assays were performed by seeding 100 μL of cells at a density of 250,000 or 100,000 cells/mL, for HEPG2 and HEPA1C1C7 DRE-Luc cells respectively, into 96-well cell culture plates in OptiMEM supplemented with 0.5% heat inactivated FBS and allowed to attach overnight. For modulator assays, the compounds were added in a semi-log dose response using a D300e Digital Dispenser (Tecan) followed normalization with vehicle (DMSO). Immediately following compound addition 10 μL of 2,3,7,8-Tetrachlorodibenzo-p-dioxin (TCDD) was added to the cells to a final concentration of 3 nM or 0.3 nM for the HEPG2 and HEPA1C1C7 DRE-Luc cells respectively. Following 24-hour incubation, the medium was removed and the cells were lysed in 25 μL of Reporter Lysis Buffer (Promega). Firefly luciferase activity was measured immediately following the addition of 50 μL Luciferase Assay Reagent (Promega). The percent maximal activity for each point was determined using the following equation: (RLUsample−RLUvehicle−TCDD)/(RLUvehicle+TCDD RLUvehicle−TCDD)*100. The relative IC50, defined as the compound concentration required to reduce the TCDD induced response between the top and bottom plateau of each individual dose response curve by half, for each compound was determined using Prism 7 (GraphPad Software).

IC50, < 200 nM:
2-((2-hydroxy-2-azaspiro[3.3]heptan-2-yl)methyl)-3-methyl-5-(2-methyl-4-(6-(trifluoromethyl)pyrido[3,2-d]pyrimidin-2-yl)phenyl)-6,7-dihydropyrazolo[1,5-a]pyrazin-4 (5H)-one [Example 109]
Cc1cc(-c2ncc3cc(C(F)(F)F)ccc3n2)ccc1N1CCn2ncc(C)c2S1(=O)=O [Example 93, 8-methyl-2-(2-methyl-4-(6-(trifluoromethyl)quinazolin-2-yl)phenyl)-3,4-dihydro-2H-pyrazolo[1,5-e][1,2,5]thiadiazine 1,1-dioxide]
Cc1cc(-c2ncc3cc(C(F)(F)F)ccc3n2)ccc1N1CCn2ncc(C3NC(=O)NC3=O)c2C1=O (stereo not drawn) [Example 94, 5-(5-(2-methyl-4-(6-(trifluoromethyl)quinazolin-2-yl)phenyl)-4-oxo-4,5,6,7-tetrahydropyrazolo[1,5-a]pyrazin-3-yl)imidazolidine-2,4-dione]
Cc1cc(-c2ncc3cc(C(F)(F)F)ccc3n2)ccc1N1CCn2nc(CN3CCO[C@H](C)C3)c(C)c2C1=O [Example 95, (R)-3-methyl-5-(2-methyl-4-(6-(trifluoromethyl)quinazolin-2-yl)phenyl)-2-((2-methylmorpholino)methyl)-6,7-dihydropyrazolo[1,5-a]pyrazin-4 (5H)-one]
Cc1cc(-c2ncc3cc(C(F)(F)F)ccc3n2)ccc1N1CCn2nc(CN3CCO[C@@H](C)C3)c(C)c2C1=O [Example 96, (S)-3-methyl-5-(2-methyl-4-(6-(trifluoromethyl)quinazolin-2-yl)phenyl)-2-((2-methylmorpholino)methyl)-6,7-dihydropyrazolo[1,5-a]pyrazin-4 (5H)-one]
Cc1cc(-c2ncc3cc(C(F)(F)F)ccc3n2)ccc1N1CCn2nc(COP(=O)(O)O)c(C)c2C1=O [Example 97, (3-methyl-5-(2-methyl-4-(6-(trifluoromethyl)quinazolin-2-yl)phenyl)-4-oxo-4,5,6,7-tetrahydropyrazolo[1,5-a]pyrazin-2-yl)methyl dihydrogen phosphate]
Cc1cc(-c2ncc3cc(C(F)(F)F)ccc3n2)ccc1N1CCn2nc(CN3CCC(=O)CC3)c(C)c2C1=O [Example 98, 3-methyl-5-(2-methyl-4-(6-(trifluoromethyl)quinazolin-2-yl)phenyl)-2-((4-oxopiperidin-1-yl)methyl)-6,7-dihydropyrazolo[1,5-a]pyrazin-4 (5H)-one]
Cc1cc(-c2ncc3cc(C(F)(F)F)ccc3n2)ccc1N1CCn2nc(CN3CCC(F)CC3)c(C)c2C1=O [Example 99, 2-((4-fluoropiperidin-1-yl)methyl)-3-methyl-5-(2-methyl-4-(6-(trifluoromethyl)-quinazolin-2-yl)phenyl)-6,7-dihydropyrazolo[1,5-a]pyrazin-4 (5H)-one]
Cc1cc(-c2ncc3cc(C(F)(F)F)ccc3n2)ccc1N1CCn2nc(CN3CCC(O)CC3)c(C)c2C1=O [Example 100, 2-((4-hydroxypiperidin-1-yl)methyl)-3-methyl-5-(2-methyl-4-(6-(trifluoromethyl)-quinazolin-2-yl)phenyl)-6,7-dihydropyrazolo[1,5-a]pyrazin-4 (5H)-one]
Cc1cc(-c2ncc3cc(C(F)(F)F)ccc3n2)ccc1N1CCn2nc(CN3CCS(=O)(=O)CC3)c(C)c2C1=O [Example 101, 2-((1,1-dioxidothiomorpholino)methyl)-3-methyl-5-(2-methyl-4-(6-(trifluoro-methyl)quinazolin-2-yl)phenyl)-6,7-dihydropyrazolo[1,5-a]pyrazin-4 (5H)-one]
Cc1cc(-c2ncc3cc(C(F)(F)F)ccc3n2)ccc1N1CCn2nc(CN3CCC4(CC3)COC4)c(C)c2C1=O [Example 102, 2-((2-oxa-7-azaspiro[3.5]nonan-7-yl)methyl)-3-methyl-5-(2-methyl-4-(6-(trifluoromethyl)quinazolin-2-yl)phenyl)-6,7-dihydropyrazolo[1,5-a]pyrazin-4 (5H)-one]
Cc1cc(-c2ncc3cc(C(F)(F)F)ccc3n2)ccc1N1CCn2nc(CN3CCN(C)CC3)c(C)c2C1=O [Example 103, 3-methyl-5-(2-methyl-4-(6-(trifluoromethyl)quinazolin-2-yl)phenyl)-2-((4-methyl-piperazin-1-yl)methyl)-6,7-dihydropyrazolo[1,5-a]pyrazin-4 (5H)-one]
Cc1cc(-c2ncc3cc(C(F)(F)F)ccc3n2)ccc1N1CCn2nc(CN3CCN(C)C(=O)C3)c(C)c2C1=O [Example 104, 3-methyl-2-((4-methyl-3-oxopiperazin-1-yl)methyl)-5-(2-methyl-4-(6-(trifluoro-methyl)quinazolin-2-yl)phenyl)-6,7-dihydropyrazolo[1,5-a]pyrazin-4 (5H)-one]
Cc1cc(-c2ncc3nc(C(F)(F)F)ccc3n2)ccc1N1CCn2nc(CN3CCOCC3)c(C)c2C1=O [Example 105, 3-methyl-5-(2-methyl-4-(6-(trifluoromethyl)pyrido[3,2-d]pyrimidin-2-yl)phenyl)-2-(morpholinomethyl)-6,7-dihydropyrazolo[1,5-a]pyrazin-4 (5H)-one]
Cc1cc(-c2ccc3nc(C(F)(F)F)ccc3n2)ccc1N1CCn2nc(CN3CCOCC3)c(C)c2C1=O [Example 106, 3-methyl-5-(2-methyl-4-(6-(trifluoromethyl)-1,5-naphthyridin-2-yl)phenyl)-2-(morpholinomethyl)-6,7-dihydropyrazolo[1,5-a]pyrazin-4 (5H)-one]
Cc1cc(-c2ncc3cc(C(F)(F)F)ccc3n2)ccc1N1CCn2nc(C(=O)N3CCN(C)CC3)c(C)c2C1=O [Example 107, 3-methyl-5-(2-methyl-4-(6-(trifluoromethyl)quinazolin-2-yl)phenyl)-2-(4-methylpiperazine-1-carbonyl)-6,7-dihydropyrazolo[1,5-a]pyrazin-4 (5H)-one]
Cc1cc(-c2ncc3cc(C(F)(F)F)ccc3n2)ccc1N1CCn2nc(CN3CCC(F)(F)CC3)c(C)c2C1=O [Example 108, 2-((4,4-difluoropiperidin-1-yl)methyl)-3-methyl-5-(2-methyl-4-(6-(trifluoro-methyl)quinazolin-2-yl)phenyl)-6,7-dihydropyrazolo[1,5-a]pyrazin-4 (5H)-one]
Cc1cc(-c2ncc3cc(C(F)(F)F)ccc3n2)ccc1N1CCn2nc(CN3CCCC4(COC4)C3)c(C)c2C1=O [Example 110, 2-((2-oxa-6-azaspiro[3.5]nonan-6-yl)methyl)-3-methyl-5-(2-methyl-4-(6-(trifluoro-methyl)quinazolin-2-yl)phenyl)-6,7-dihydropyrazolo[1,5-a]pyrazin-4 (5H)-one]
Cc1cc(-c2ncc3cc(C(F)(F)F)ccc3n2)ccc1N1CCn2nc(CN3CCC4(COC4)C3)c(C)c2C1=O [Example 111, 2-((2-oxa-6-azaspiro[3.4]octan-6-yl)methyl)-3-methyl-5-(2-methyl-4-(6-(trifluoromethyl)quinazolin-2-yl)phenyl)-6,7-dihydropyrazolo[1,5-a]pyrazin-4 (5H)-one]
Cc1cc(-c2ncc3cc(C(F)(F)F)ccc3n2)ccc1N1CCn2nc(C(C)N3CCOCC3)c(C)c2C1=O (stereo not drawn) [Example 112, 3-methyl-5-(2-methyl-4-(6-(trifluoromethyl)quinazolin-2-yl)phenyl)-2-(1-morpholinoethyl)-6,7-dihydropyrazolo[1,5-a]pyrazin-4 (5H)-one]
Cc1cc(-c2ncc3cc(C(F)(F)F)ccc3n2)ccc1N1CCn2nc(N)c(C)c2C1=O [Example 113, 2-amino-3-methyl-5-(2-methyl-4-(6-(trifluoromethyl)quinazolin-2-yl)phenyl)-6,7-dihydropyrazolo[1,5-a]pyrazin-4 (5H)-one]
